Data set [1] can be described thus: Change of body weight in mice bearing solid tumor. Type of data set: in vivo, mouse. The settings on record: ddY mice bearing S180, during or after i.v. administration, FIG. 5. The method, then: (§1) Similar to Experiment 3 above, sarcoma S180 of mice implanted under the dosal skin of ddY mice, and after 10, 13 and 15 days after tumor implantation, PEG-ZnPP at 30 n mole, 30 n mole and 50 n mole (3 times only), respectively, was injected into the tail vein respectively (see also arrow marks in FIG. 4). Control mice received distilled water instead of PEG-ZnPP.

Data set [2] relates to heme oxygenase in S 180 sarcoma tumor tissue. Kind of data set: Inhibition of heme oxygenase in solid tumor model in mouse. Type of data set: in vivo. The settings on record: ddY mice, S 180 tumor. The method, then: In male ddY mice with mean body weight of 35 g, S 180 sarcoma cells were implanted in the dorsal skin, and when solid tumor size become 5 mm in cross diameter after about one week, PEG-ZnPP dissolved in distilled water were injected via tail vein (i.v.) at 0.5 mg ZnPP equivalent per Kg body weight. The solid tumors were removed after 24 hr, and heme oxygenase activity was quantified similarly as described in Example 1. Control mouse received distilled water without PEG-ZnPP. The tumor specimens were obtained and treated similarly.

For a further data set, the system named is sarcoma S180. Kind of data set: Antitumor effect in mice bearing solid tumor. Type of data set: in vivo, mouse. The settings on record: ddY mice, i.v. 30, 30 and 50 n mole on days 10, 13 and 15 after implantation, FIG. 4. Here is the method:
as §1

Data set [3] has as its system Lung adenocarcinoma cell line A549 cells. Kind of data set: Oxidative stress in cultured tumor cells (DCDHF fluorescence, flow cytometry). The settings on record: 5 μM and 10 μM, 8 hrs, compared with no drug, FIG. 3. Type of data set: cell-based. Here is the method: Lung adenocarcinoma cell line A549 cells were plated in plastic dish and after overnight culture, 5 μM and 10 μM of PEG-ZnPP dissolved in distilled water were added to the culture dishes. Then, 8 hrs after cultivation at 37° C., a reagent that quantifies oxidative stress, called dichlorodihydrofluorescein diacetyl ester (DCDHF) was added and allowing cell culture for 30 minutes. Under oxidative stress, this DCDHF will be become oxidized and will fluoresce due to oxystress was generated by formation of fluorescein in cells.
Quantification of fluorescence intensity represents the extent of oxidative stress induced in the cells. Then, cultured cells were trypsinized and recovered cells were subjected to the flow cytometrory analysis and fluorescence cell population was quantified. The results are shown in FIG. 3, where the effect of PEG-ZnPP at 5 μM, 10 μM, is compared with that of no drug.

Data set [4] addresses T1, purified heme oxygenase fraction derived from rat spleen (Rattus norvegicus, UniProt P06762).
T1 construct: purified heme oxygenase fraction derived from rat spleen; from tissue; host or cells: rat spleen
T1 sequence (P06762 1-289): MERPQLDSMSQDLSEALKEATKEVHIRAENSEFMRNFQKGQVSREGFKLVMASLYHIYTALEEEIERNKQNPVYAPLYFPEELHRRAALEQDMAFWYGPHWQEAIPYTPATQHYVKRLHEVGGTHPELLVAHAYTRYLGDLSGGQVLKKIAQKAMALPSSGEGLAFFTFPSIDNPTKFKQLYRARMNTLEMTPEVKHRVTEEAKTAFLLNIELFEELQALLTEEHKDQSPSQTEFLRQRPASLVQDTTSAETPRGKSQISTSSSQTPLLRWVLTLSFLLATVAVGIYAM
The data set can be described thus: Inhibitory activity against heme oxygenase (bilirubin formation, Lineweaver-Burk plot). Type of data set: biochemical. Here is the method: This was examined using purified heme oxygenase fraction derived from rat spleen. It was assayed at 37° C. in the presence of hemin, the substrate of heme oxygenase, cofactor (NADPH, […]), and cytosolic fraction containing bilirubin reductase, in which biliverdin formed by the oxygenase is converted to bilirubin.
Bilirubin was extracted with chloroform and quantified by absorption at 465 nm. By the addition of either PEG-ZnPP, or unmodified ZnPP, or no inhibitor, their effect on heme oxidase was examined, and the Lineweaver-Burk plot of heme oxygenase activity was plotted during the inhibition by PEG-ZnPP. […] Mode of inhibition was competitive, and the value was equivalent to that of unmodified ZnPP.

A short description of a further data set: Solubility in water. Type of data set: physicochemical. The settings on record: for i.v. injection.
The subject of the next data set is tumor. The settings on record: administered into the tumor feeding artery, oily formulation; K. Doi et al. 1999; cited from earlier work.

Entries after “also recorded” stand apart in the source; their conditions may differ.

On to “Polyethylene Glycol Conjugated ZnPP [PEG-ZnPP]”, for which, in data set [1], the Body weight change entry is “no remarkable body weight loss”. The “Activity of heme oxygenase in tumor tissue” value in data set [2] (i.v. tail vein 0.5 mg ZnPP equivalent per Kg, tumor removed after 24 hr, control 4.17 ± 1.07 (P < 0.02)) is listed as 2.30 ± 0.54 n mol bilirubin/mg protein/hr. Besides, the “Effect on intratumor heme oxygenase activity (in words)” value in data set [2] (i.v. tail vein, 24 hr) was “significant reduction of the heme oxygenase activity”. In addition, the “Tumor growth (tumor size) compared with control group” value in the data set on sarcoma S180 is given as “remarkable suppression of tumor growth”. Also, in data set [3], the “intracellular oxidative state (DCDHF fluorescence)” value is reported as “higher intracellular oxidative state in the dose dependent manner”. Further, the inhibition constant (Ki) (as a rule, the dissociation constant of the complex between target and ligand, obtained from inhibition or displacement) in data set [4] (37° C., hemin substrate, NADPH, cytosolic fraction with bilirubin reductase, read-out: inhibitory constant (Ki) against heme oxygenase) was 130 nM. In data set [4] (FIG. 2), the “Inhibition of heme oxygenase (in words)” value is recorded as “inhibits the heme oxygenase in a dose dependent manner”. For the same compound, in data set [4] (Lineweaver-Burk plot, FIG. 2), the “Mode of inhibition of heme oxygenase” value is recorded as “competitive”.

`C=CC1=C(C)c2cc3[n-]c(cc4nc(cc5[n-]c(cc1n2)c(C)c5C=C)C(C)=C4CCC(=O)O)c(CCC(=O)O)c3C.[Zn+2]` [ZnPP, zinc protoporphyrin]: the Solubility in water entry in “Solubility in water” is “almost insoluble in water”; in “Solubility in water” (listed as Unmodified ZnPP), “could not be administered i.v. because of its difficulty in solubility; also recorded: Impossible to solubilize”. In the data set with tumor, the “Antitumor effect in rats” value is on record as “confirmed antitumor effect in rats”.

The record behind these values is US7026488B2, “Antitumor agents and process for producing the same” (priority 2001, dated 2006).
